# From patent US20030206968A1, “Fungicidal mixtures” (priority 1999, published 2003)
# Tests used:
# Format in all cases: in vivo
# [1] = tested on: Blumeria graminis; experiment: Greenhouse, Blumeria graminis on barley, 4 days residual; details: Example 32
# Protocol: (§1) The trials are carried out under greenhouse (Examples 1 to 32) or field conditions (Examples 33 to 40) in residual or curative applications. The fungicides are applied in single treatments, or in a combination comprising an azolopyrimidine of formula I and a compound selected from the classes (A), (B) and (C) as defined above. The compounds are applied in form of an aqueous spray mix obtained from a concentrated formulation or the technical material.
# (§2) 1. Seed is planted in 6 cm diameter plastic pots and maintained in the greenhouse.
# (§3) 2. When the primary leaf is fully expanded in the case of cereals or several leaves are present in the case of dicots, formulated test compounds are sprayed with a three nozzle overhead fungicide sprayer to near run-off. Alternatively, a single nozzle overhead track sprayer is used for application of the compounds to cereals at a rate of 200 l/ha. Plants are then allowed to air-dry.
# (§4) 3. Inoculation precedes treatment in the case of curative evaluations and follows treatment in case of residual evaluations. For inoculation of powdery mildew disease, plants are set up on greenhouse benches with bottom watering mats and inoculated by dusting them with conidia from infected plants. Between inoculation and treatment for curative evaluations and between treatment and inoculation for residual evaluations, plants are maintained in the greenhouse with bottom watering.
# (§5) 4. Disease on the foliage as percent leaf area with disease symptoms/signs is evaluated about 7 days after inoculation. In the case of wheat, the tips and bases of the leaves are excluded from the evaluation. [formula]
# (§6) 1. Technical compounds are formulated in a solvent/surfactant system consisting of 5% acetone and 0.05% Tween 20 in deionized water. Compounds are dissolved in acetone prior to addition of the water; the Tween 20 can be added through either the acetone or the water. Dilutions are made using the solvent/surfactant system. Formulated compounds are prepared using deionized water.
# (§7) 2. Two kinds of controls are included: Plants treated with the solvent/surfactant solution and inoculated (Solvent Blank). Untreated plants which are inoculated (Inoculated Control).
# (§8) Assessments of the diseases took place at the indicated day after the application of the compounds. Per cent infected leaf area infected was evaluated. The efficacy of the compounds/compounds mixtures to control the diseases was calculated by using the formula given above under item 4: […]
# (§9) Synergy was calculated using the % disease control values of specific treatments for the two COLBY formula given hereinabove
# Fungicidal efficacy of the mixture of (S)-Azolopyrimidine C in admixture with Azoxystrobin (4 days residual) against Blumeria graminis on barley. The tank mixes were obtained from technical material of (S)-Azolopyrimidine C and Azoxystrobin.
# [2] = tested on: Puccinia recondita; experiment: Greenhouse, Puccinia recondita on wheat, 1 day curative, plants sprayed twice, once with each compound; details: Example 12
# Protocol: as §1, §2, §3, §4
# (§10) For inoculation of non-powdery mildew diseases, an aqueous spore suspension of the pathogen is applied to the plant and the plants are kept 1-2 days in a moist infection chamber before being returned to the greenhouse where they are maintained by bottom watering.
# as §5, §6, §7, §8, §9
# Fungicidal efficacy of the mixture of Azolopyrimidine C+kresoxim methyl (1 day curative) against Puccinia recondita on wheat Plants sprayed twice, once with each compound. The tank mixes were obtained from a SC formulation containing 100 g Azolopyrimidine C per liter and a WG containing 500 g kresoxim methyl per kg.
# [3] = tested on: Septoria tritici; experiment: Field test, Septoria tritici on wheat
# Protocol: as §1
# For the field study formulated Azolopyrimidine A, B or C and formulated compounds from the classes (A), (B) and (C) were used.
# as §8, §9
# The compounds are applied according to good agricultural practice in the form of an aqueous spray mix obtained from a concentrated formulation or the technical material at a rate of 400 l/ha. The disease control is evaluated according to the formula given for the greenhouse tests.
# Fungicidal efficacy of the mixture of Azolopyrimidine C+metconazole in the field against Septoria tritici on wheat The tank mix was obtained from an EC formulation containing 150 g Azolopyrimidine C per liter and a SL formulation containing 60 g metconazole per liter. The observed and expected efficacies with different rates are given in Table XXXIVa (19 days after application) and Table XXXIVb (25 days after application):
# Fungicidal efficacy of the mixture of (S)-Azolopyrimidine C+kresoxim methyl in the field against Septoria tritici on wheat The tank mix was obtained from a SC formulation containing 100 g (S)-Azolopyrimidine C per liter and a WG formulation containing 500 g kresoxim methyl per kg. The observed and expected efficacies with different rates are given in Tables XXXVa (7 days after application), XXXVb (22 days after application), XXXVc (34 days after application), and XXXVd (41 days after application):
# Fungicidal efficacy of the mixture of Azolopyrimidine A and different cereal fungicides the field against Septoria tritici on wheat 15 days after application The tank mix was obtained from an SC formulation containing 100 g Azolopyrimidine A per liter and commercially available formulations of metconazole, epoxiconazole or propiconazole, respectively.
# [4] = tested on: Blumeria graminis; experiment: Greenhouse, Blumeria graminis on wheat, 1 day residual
# Text: as §1, with “The” for “The trials are carried out under greenhouse (Examples 1 to 32) or field conditions (Examples 33 to 40) in residual or curative applications. The”
# as §2, §3, §4, §5, §6, §7, §8, §9
# Fungicidal efficacy of the mixture of Azolopyrimidine C+quinoxyfen (1 day residual)) against Blumeria graminis on wheat The tank mix was obtained from technical material of Azolopyrimidine C and quinoxyfen.
# Fungicidal efficacy of the mixture of Azolopyrimidine C+metalaxyl (1 day residual) against Blumeria graminis on wheat The tank mix was obtained from technical material of Azolopyrimidine C and metalaxyl.
# Fungicidal efficacy of the mixture of Azolopyrimidine C+famoxadone (1 day residual) against Blumeria graminis on wheat The tank mix was obtained from technical material of Azolopyrimidine C and famoxadone.
# [5] = tested on: Alternaria solani; experiment: Greenhouse, Alternaria solani on tomatoes, 1 day residual; details: Example 25; rate 4 g/ha
# Protocol: as §1, §2, §3, §4, §10, §5, §6, §7, §8, §9
# Fungicidal efficacy of the mixture of Azolopyrimidine C and different fungicides (1 day residual) against Alternaria solani on tomatoes The tank mix was obtained from an SC formulation containing 100 g Azolopyrimidine A per liter and WP formulations of dithianon (750 g/kg), captan (500 g/kg), cyprodinil (750 g/kg), mancozeb (800 g/kg), or a SC formulation of chlorothalonil (500 g/l), or a FS formulation of fenpiclonil (400 g/l), spectively.
# [6] = tested on: Rhynchosporium secalis; experiment: Greenhouse, Rhynchosporium secalis on barley, 1 day residual; details: Example 8; dose rate 100 ppm
# Protocol: as §1, §2
# 2. When the primary leaf is fully expanded in the case of cereals or several leaves are present in the case of dicots, formulated test compounds are sprayed with a three nozzle overhead fungicide sprayer to near run-off. […]
# 4. Disease on the foliage as percent leaf area with disease symptoms/signs is evaluated about 7 days after inoculation. […]
# as §8
# Synergy was calculated using the % disease control values of specific treatments for the two COLBY formula given hereinabove […]
compound,measurement,setting,value
"5-chloro-6-(2,4,6-trifluorophenyl)-7-(1,1,1-trifluoroprop-2-ylamino)-[1,2,4]triazolo[1,5-a]pyrimidine [(S)-Azolopyrimidine C]",Observed Efficacy,[1]; dose rate 1.6 ppm,0%
same,Observed Efficacy,[1]; dose rate 3.1 ppm,3%
same,Observed Efficacy,[1]; dose rate 6.3 ppm,8%
same,Observed Efficacy,[1]; dose rate 12.5 ppm,17%
same,Observed Efficacy,[1]; dose rate 25 ppm,22%
same,Observed Efficacy,[1]; dose rate 50 ppm,28%
same,Observed Efficacy,[2]; dose rate 25 g/ha,25%
same,Observed Efficacy,[2]; dose rate 50 g/ha,66%
same,Observed Efficacy,[2]; dose rate 100 g/ha,79%
same,Observed Efficacy,[2]; dose rate 200 g/ha,97%
same,Observed Efficacy,[2]; dose rate 400 g/ha,99%
same,Observed Efficacy,"[3]; (S)-Azolopyrimidine C 75 g/ha alone, 41 days after application, field, wheat",92
same,Observed Efficacy,"[3]; Example 35, 7 days after application, dose rate 25 g/ha",34%
same,Observed Efficacy,"[3]; Example 35, 22 days after application, dose rate 25 g/ha",74%
same,Observed Efficacy,"[3]; Example 35, 22 days after application, dose rate 100 g/ha",87%
same,Observed Efficacy,"[3]; Example 35, 34 days after application, dose rate 50 g/ha",53%
same,Observed Efficacy,"[3]; Example 35, 34 days after application, dose rate 100 g/ha",70%
"CC(Nc1c(-c2c(F)cc(F)cc2F)c(Cl)nc2ncnn12)C(F)(F)F (stereo not shown) [Azolopyrimidine C, 5-chloro-6-(2,4,6-trifluorophenyl)-7-(1,1,1-trifluoroprop-2-ylamino)-[1,2,4]triazolo[1,5-a]pyrimidine]",Observed Efficacy,"[4]; Example 16, dose rate 0.06 ppm",0%
same,Observed Efficacy,"[4]; Example 16, dose rate 0.25 ppm",19%
same,Observed Efficacy,"[4]; Example 16, dose rate 1 ppm",42%
same,Observed Efficacy,"[4]; Example 16, dose rate 4 ppm",96%
same,Observed Efficacy,"[4]; Example 17, dose rate 0.06 ppm",0%
same,Observed Efficacy,"[4]; Example 17, dose rate 0.25 ppm",19%
same,Observed Efficacy,"[4]; Example 17, dose rate 1 ppm",42%
same,Observed Efficacy,"[4]; Example 17, dose rate 4 ppm",96%
same,Observed Efficacy,"[4]; Example 18, dose rate 0.06 ppm",0%
same,Observed Efficacy,"[4]; Example 18, dose rate 0.25 ppm",19%
same,Observed Efficacy,"[4]; Example 18, dose rate 1 ppm",42%
same,Observed Efficacy,"[4]; Example 18, dose rate 4 ppm",96%
same,Observed Efficacy,[5],25%
same,Observed Efficacy,[6],15%
same,Observed Efficacy,"[3]; Example 34, 19 days after application, dose rate 25 g/ha",48%
same,Observed Efficacy,"[3]; Example 34, 25 days after application, dose rate 50 g/ha",61%
same,Observed Efficacy,"[3]; Example 34, 25 days after application, dose rate 75 g/ha",13%
